According to patent US8809350B2, “Purine and pyrimidine CDK inhibitors and their use for the treatment of autoimmune diseases” (priority 2004, dated 2014):
pIC50: −log10 of the molar value. “Also recorded” adds a separate entry of the source. Where two headings read alike, the source gives them in different places.

Tests used:
HCT116 cells = settings: cited from earlier work
CDK7/cyclin H = CDK7/cyclin H (Homo sapiens, UniProt P50613); assay: CDK 7 and 9 assay (CTD peptide substrate); type: biochemical; settings: in-house kinase assays; read-out: Average IC50 CDK7H
CDK7/cyclin H, sequence (P50613 whole entry): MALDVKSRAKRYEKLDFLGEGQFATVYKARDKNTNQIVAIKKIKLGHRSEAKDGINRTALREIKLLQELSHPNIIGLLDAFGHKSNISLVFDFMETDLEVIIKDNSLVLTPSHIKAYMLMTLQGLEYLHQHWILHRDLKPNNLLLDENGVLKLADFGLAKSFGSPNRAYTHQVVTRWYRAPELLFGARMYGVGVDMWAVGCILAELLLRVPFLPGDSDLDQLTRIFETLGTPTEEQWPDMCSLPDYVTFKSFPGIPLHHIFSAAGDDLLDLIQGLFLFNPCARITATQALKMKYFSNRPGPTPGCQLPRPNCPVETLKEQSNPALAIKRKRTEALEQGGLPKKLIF
CDK7/cyclin H, sequence (P51946 whole entry partner): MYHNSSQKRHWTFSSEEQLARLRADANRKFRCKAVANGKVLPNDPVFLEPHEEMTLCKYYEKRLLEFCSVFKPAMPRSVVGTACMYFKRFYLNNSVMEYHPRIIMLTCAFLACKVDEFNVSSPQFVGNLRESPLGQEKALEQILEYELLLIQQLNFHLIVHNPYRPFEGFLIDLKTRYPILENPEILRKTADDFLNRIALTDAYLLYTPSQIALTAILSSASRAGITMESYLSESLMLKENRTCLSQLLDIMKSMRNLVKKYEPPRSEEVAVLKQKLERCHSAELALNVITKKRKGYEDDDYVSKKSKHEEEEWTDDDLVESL
Experimental: (§1) Kinase activity was investigated by measuring the incorporation of radioactive phosphate from ATP into appropriate polypeptide substrates. Recombinant protein kinases and kinase complexes were produced or obtained commercially. Assays were performed using 96-well plates and appropriate assay buffers (typically 25 mM β-glycerophosphate, 20 mM MOPS, 5 mM EGTA, 1 mM DTT, 1 mM […], pH 7.4), into which were added 2-4 μg of active enzyme with appropriate substrates. The reactions were initiated by addition of Mg/ATP mix (15 mM MgCl2+100 μM ATP with 30-50 kBq per well of [γ-^32P]-ATP) and mixtures incubated as required at 30° C. Reactions were stopped on ice, followed by filtration through p81 filterplates or GF/C filterplates (Whatman Polyfiltronics, Kent, UK). After washing 3 times with 75 mM aq orthophosphoric acid, plates were dried, scintillant added and incorporated radioactivity measured in a scintillation counter (TopCount, Packard Instruments, Pangbourne, Berks, UK). Compounds for kinase assay were made up as 10 mM stocks in DMSO and diluted into 10% DMSO in assay buffer.
(§2) The reaction was stopped by placing the plate on ice for 2 min. Avidin (50 μg) was added to each well, and the plate was incubated at room temp for 30 min. The samples were transferred to a 96-well P81 filter plate, and washed (4×200 μL per well) with 75 mM phosphoric acid. Microscint 40 scintillation liquid (50 μL) was added to each well, and the amount of ^32P incorporation for each sample was measured using a Packard Topcount microplate scintillation counter.

CDK1B = CDK1B (Homo sapiens, UniProt P06493); assay: In-house kinase assay (32P incorporation); type: biochemical; settings: in-house kinase assays
CDK1B, sequence (P06493 whole entry): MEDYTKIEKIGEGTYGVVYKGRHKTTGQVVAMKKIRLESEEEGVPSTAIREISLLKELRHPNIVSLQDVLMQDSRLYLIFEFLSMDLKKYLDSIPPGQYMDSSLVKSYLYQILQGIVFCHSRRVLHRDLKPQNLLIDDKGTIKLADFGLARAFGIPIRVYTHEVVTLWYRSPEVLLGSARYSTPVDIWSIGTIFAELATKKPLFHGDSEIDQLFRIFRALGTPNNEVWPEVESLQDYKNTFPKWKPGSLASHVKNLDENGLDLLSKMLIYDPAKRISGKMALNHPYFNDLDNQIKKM
CDK1B, sequence (P14635 whole entry partner): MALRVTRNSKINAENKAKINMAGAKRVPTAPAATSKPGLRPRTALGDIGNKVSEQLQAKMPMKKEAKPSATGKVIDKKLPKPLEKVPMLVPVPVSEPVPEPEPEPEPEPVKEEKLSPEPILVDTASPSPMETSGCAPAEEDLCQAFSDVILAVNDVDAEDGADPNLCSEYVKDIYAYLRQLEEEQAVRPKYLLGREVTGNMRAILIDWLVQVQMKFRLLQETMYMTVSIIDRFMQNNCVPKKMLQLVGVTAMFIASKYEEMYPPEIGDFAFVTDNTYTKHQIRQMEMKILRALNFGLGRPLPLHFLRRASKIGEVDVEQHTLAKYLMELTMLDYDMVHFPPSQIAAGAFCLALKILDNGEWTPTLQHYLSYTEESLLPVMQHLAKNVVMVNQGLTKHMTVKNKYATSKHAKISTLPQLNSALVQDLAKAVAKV
Experimental: as §1

CDK2A = CDK2A (Homo sapiens, UniProt P24941); assay: In-house kinase assay (32P incorporation); type: biochemical; settings: in-house kinase assays
Experimental: as §1

AurA = biological target: T1, AurA (Homo sapiens, UniProt O14965); assay: In-house kinase assay (32P incorporation); type: biochemical; settings: in-house kinase assays
T1 sequence (O14965 1-403): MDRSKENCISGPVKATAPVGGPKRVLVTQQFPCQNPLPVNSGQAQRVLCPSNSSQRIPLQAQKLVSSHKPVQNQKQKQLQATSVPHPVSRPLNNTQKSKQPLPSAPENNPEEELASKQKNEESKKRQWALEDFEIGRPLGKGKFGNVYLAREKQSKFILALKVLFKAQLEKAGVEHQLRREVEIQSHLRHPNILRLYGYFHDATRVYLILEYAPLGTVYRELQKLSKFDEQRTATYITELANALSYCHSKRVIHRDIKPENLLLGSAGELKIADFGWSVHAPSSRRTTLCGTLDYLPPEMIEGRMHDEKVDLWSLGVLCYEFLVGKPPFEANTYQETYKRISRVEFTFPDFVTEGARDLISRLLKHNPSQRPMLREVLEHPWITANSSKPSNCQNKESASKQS
Experimental: as §1

CDK6D3 = CDK6D3 (Homo sapiens, UniProt Q00534); assay: In-house kinase assay (32P incorporation); type: biochemical; settings: in-house kinase assays
CDK6D3, sequence (Q00534 whole entry): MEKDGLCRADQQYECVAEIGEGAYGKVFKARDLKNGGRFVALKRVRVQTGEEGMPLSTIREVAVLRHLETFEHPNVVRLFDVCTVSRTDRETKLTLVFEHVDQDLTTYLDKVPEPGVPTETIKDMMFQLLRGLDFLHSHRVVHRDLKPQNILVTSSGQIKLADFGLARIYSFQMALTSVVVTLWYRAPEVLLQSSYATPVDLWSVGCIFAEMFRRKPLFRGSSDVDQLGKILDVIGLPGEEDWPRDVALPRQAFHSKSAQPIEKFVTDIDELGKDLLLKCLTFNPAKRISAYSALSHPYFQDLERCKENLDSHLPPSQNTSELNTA
CDK6D3, sequence (P30281 whole entry partner): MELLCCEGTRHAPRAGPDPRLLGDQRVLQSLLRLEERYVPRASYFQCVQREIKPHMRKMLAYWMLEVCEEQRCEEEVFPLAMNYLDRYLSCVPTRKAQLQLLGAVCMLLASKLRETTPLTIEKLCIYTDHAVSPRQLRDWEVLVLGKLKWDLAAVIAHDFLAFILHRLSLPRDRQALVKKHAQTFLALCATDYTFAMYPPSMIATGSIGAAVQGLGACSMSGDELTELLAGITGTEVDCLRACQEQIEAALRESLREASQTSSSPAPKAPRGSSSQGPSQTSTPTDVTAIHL
Experimental: as §1

CDK2E = CDK2E (Homo sapiens, UniProt P24941); assay: In-house kinase assay (32P incorporation); type: biochemical; settings: in-house kinase assays
Experimental: as §1

CDK4D1 = CDK4D1 (Homo sapiens, UniProt P11802); assay: In-house kinase assay (32P incorporation); type: biochemical; settings: in-house kinase assays
CDK4D1, sequence (P11802 whole entry): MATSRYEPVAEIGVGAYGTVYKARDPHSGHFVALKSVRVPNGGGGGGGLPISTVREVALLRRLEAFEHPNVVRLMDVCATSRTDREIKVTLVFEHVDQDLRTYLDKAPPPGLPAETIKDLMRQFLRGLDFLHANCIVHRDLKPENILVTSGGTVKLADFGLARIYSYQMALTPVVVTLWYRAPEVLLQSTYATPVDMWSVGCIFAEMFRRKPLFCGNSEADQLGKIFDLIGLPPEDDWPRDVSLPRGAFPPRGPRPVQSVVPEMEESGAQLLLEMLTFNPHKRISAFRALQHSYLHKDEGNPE
CDK4D1, sequence (P24385 whole entry partner): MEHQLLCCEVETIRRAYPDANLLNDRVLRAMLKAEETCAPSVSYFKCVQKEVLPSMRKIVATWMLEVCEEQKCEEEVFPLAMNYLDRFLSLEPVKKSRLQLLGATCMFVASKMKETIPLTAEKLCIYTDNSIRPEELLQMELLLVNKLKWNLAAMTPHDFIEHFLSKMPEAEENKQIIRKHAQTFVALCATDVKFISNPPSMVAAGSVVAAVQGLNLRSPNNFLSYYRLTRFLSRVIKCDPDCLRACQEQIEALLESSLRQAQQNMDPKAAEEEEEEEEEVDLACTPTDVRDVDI
Experimental: as §1

AurB = AurB (Homo sapiens, UniProt Q96GD4); assay: In-house kinase assay (32P incorporation); type: biochemical; settings: in-house kinase assays
AurB, sequence (Q96GD4 whole entry): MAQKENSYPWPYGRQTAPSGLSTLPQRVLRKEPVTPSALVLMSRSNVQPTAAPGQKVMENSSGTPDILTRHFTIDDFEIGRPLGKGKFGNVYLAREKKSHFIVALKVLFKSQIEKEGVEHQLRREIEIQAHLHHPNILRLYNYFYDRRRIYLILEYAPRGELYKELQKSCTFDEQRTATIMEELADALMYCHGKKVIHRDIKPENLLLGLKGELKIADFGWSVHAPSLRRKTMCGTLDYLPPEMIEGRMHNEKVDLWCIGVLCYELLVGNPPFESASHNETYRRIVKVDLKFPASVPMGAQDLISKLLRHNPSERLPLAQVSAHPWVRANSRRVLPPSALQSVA
Experimental: as §1

tumour cell panels = assay: In-house 72 hour cytotoxicity assays on tumour cell panels; type: cell-based
CDK9/cyclin T1 = CDK9/cyclin T1 (Homo sapiens, UniProt P50750); assay: CDK 7 and 9 assay (CTD peptide substrate); type: biochemical; settings: in-house kinase assays; read-out: Average IC50 CDK9T1
CDK9/cyclin T1, sequence (P50750 whole entry): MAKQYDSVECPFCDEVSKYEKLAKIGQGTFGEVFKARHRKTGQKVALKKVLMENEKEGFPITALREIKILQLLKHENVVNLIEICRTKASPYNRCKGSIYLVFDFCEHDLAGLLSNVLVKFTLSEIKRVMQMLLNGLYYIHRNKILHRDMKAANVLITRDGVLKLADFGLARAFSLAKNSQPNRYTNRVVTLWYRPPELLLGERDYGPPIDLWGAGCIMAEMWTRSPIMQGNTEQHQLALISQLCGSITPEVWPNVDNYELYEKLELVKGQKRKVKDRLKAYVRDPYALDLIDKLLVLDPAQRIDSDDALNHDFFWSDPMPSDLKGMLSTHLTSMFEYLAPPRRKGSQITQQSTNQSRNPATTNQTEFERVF
CDK9/cyclin T1, sequence (O60563 whole entry partner): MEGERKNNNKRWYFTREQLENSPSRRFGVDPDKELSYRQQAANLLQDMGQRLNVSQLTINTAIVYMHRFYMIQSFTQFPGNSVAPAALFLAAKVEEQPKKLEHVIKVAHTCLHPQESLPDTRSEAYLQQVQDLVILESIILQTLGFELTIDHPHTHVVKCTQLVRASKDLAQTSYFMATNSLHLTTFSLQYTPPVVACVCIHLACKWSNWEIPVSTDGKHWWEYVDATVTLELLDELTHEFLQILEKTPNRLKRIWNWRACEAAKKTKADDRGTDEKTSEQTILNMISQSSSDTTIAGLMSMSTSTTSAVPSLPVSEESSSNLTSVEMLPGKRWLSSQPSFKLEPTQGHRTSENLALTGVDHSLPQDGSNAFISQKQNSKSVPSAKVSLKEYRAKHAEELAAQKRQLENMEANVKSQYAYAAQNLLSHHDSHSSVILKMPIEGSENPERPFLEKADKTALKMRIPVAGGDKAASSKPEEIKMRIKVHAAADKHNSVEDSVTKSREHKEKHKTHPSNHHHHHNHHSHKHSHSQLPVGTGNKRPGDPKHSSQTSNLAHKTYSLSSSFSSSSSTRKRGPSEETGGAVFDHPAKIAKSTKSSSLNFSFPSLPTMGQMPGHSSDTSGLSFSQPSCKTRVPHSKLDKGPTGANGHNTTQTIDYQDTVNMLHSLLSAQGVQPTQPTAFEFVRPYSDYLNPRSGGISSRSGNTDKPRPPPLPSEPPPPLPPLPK
Experimental: as §1, §2

stimulated PBMCs = assay: T cell proliferation assay (BrdU ELISA in stimulated PBMCs); type: cell-based
Experimental: PBMCs were seeded in 96 well plates at 1×10^5 cells/well, in 50 μL per well culture medium. […] All stimulants and compounds were made up to 4× final concentration in tissue culture medium and 25 μL of each drug and stimulant was then added to wells, for a final volume of 100 μL/well. For unstimulated controls, 25 μL tissue culture medium was added to wells instead of stimulant and for untreated cells, 25 μL/well tissue culture medium containing equal volume DMSO (0.1% final) was added. Three adjacent wells were treated for each stimulation/treatment condition and the mean value calculated for analysis.
In addition, PBMCs were stimulated with ConA (Concanavalin A, Sigma C5275) at concentrations ranging from 0.5 μg/mL to 100 μg/mL to identify its stimulatory effect and optimal concentration.
Cells were labelled with BrdU for two hours prior to harvesting. Plates were then centrifuged for 10 minutes at 300 g (RT), supernatant removed from wells by pipetting and cells dried for 1 hour at 60° C. FixDenat solution was added to plates (100 μL/well) and incubated for 30 minutes, then flicked to remove and anti-BrdU-POD solution added to plates (100 μL/well) and incubated for 90 minutes.

[1] = rounded IC50 value used for ease of calculation in PBMC assays, read-out: IC50 Used
[2] = Example 3, PHA stimulated PBMCs, compounds at IC50 to 4×IC50, 48 hours after stimulation
[3] = Example 3, PMA/I stimulated PBMCs, all concentrations
[4] = Example 4, PHA or ConA stimulated PBMCs, 0.25×IC50 to 4×IC50, 48 and 72 hours

pIC50 (CDK7/cyclin H)	pIC50 (CDK1B)	pIC50 (CDK2A)	pIC50 (AurA)	pIC50 (CDK6D3)	pIC50 (CDK2E)	pIC50 (CDK4D1)	pIC50 (AurB)	pIC50 (CDK9/cyclin T1)	Compound	pIC50 (HCT116 cells; published for HCT116 cells, Raynaud et al. 2005, no in-house data, read-out: IC50 Average)	pIC50 (HCT116 cells; rounded from published HCT116 IC50, used in PBMC assays, read-out: IC50 Used)	pIC50 (tumour cell panels; 72 h, read-out: IC50 Average)	pIC50 (tumour cell panels; [1])	Concentration reaching complete inhibition of proliferation activity (stimulated PBMCs; Example 4, PHA or ConA stimulated PBMCs) [×IC50]	BrdU incorporation (stimulated PBMCs; [2])	BrdU incorporation (stimulated PBMCs; [3])	BrdU incorporation (stimulated PBMCs; [4])
< 4.70	–	–	–	–	–	–	–	–	Cn1cnc2c(NCc3ccccc3)nc(NCCO)nc21 [Compound 3]	4.25	4.30	–	–	–	–	–	–
4.57	4.80	5.91	7.29	5.71	6.03	5.56	7.64	5.57	CC[C@@H](Nc1nc(NCc2cccnc2)c2ncn(C(C)C)c2n1)C(C)(C)O [Compound 5]	–	–	5.84	5.82	–	–	–	–
6.01	5.31	6.65	< 5.00	5.20	7.15	5.12	< 5.00	6.71	Cc1c(-c2ccnc(Nc3ccc(N4CCNCC4)cc3)n2)sc(=O)n1C [Compound 7]	–	–	5.27	5.30	0.25	–	–	–
6.83	5.70	5.78	7.03	6.96	6.69	6.93	7.68	7.01	CCNc1nc(C)c(-c2ccnc(Nc3ccc(CNC(C)=O)cc3)n2)s1 [Compound 9]	–	–	6.60	6.60	–	clearly concentration dependent	higher than in PHA stimulated cells	concentration dependency was clearly seen; also recorded: needed at higher concentrations than the other compounds
6.34	5.83	6.94	< 5.00	5.19	7.89	5.29	< 4.00	7.09	CCNc1nc(C)c(-c2ccnc(Nc3ccc(S(C)(=O)=O)cc3)n2)s1 [Compound 10]	–	–	6.12	6.00	–	clearly concentration dependent	higher than in PHA stimulated cells	concentration dependency was clearly seen; also recorded: needed at higher concentrations than the other compounds
